According to patent US8148405B2, “Salt I” (AstraZeneca AB, priority 2005, dated 2012):
Where “and” joins values, the source holds several entries; their conditions need not be identical. Identical values can stand only once. Counter-ions that a name gives are not always drawn. Marks after values point to notes of the source that are not given here.

How the values were obtained:
[1] = Evaluation of the deaggregation properties of micronised salt (TSI Aerodynamic Particle Sizer); format: physicochemical
Description: This screening study was intended to give some estimation regarding the deaggregation properties of anhydrous N-{2-[((2S)-3-{[1-(4-chlorobenzyl)piperidin-4-yl]amino}-2-hydroxy-2-methylpropyl)oxy]-4-hydroxyphenyl}acetamide benzoate salt, form B (referred to in the remainder of this example as “Form B salt”. The results were compared to the results from an established product powder, the Pulmicort® Turbuhaler® formulation, which was tested identically.
Form B salt was micronised in order to obtain a particle size of less than […]. Pulmicort® Turbuhaler® powder was emptied from the Pulmicort® Turbuhaler®. The latter formulation consists of micronised Budesonide powder that is spheronised into small pellets. The micronization of the Form B salt was performed in a spiral jet mill. Within the inner annular space of the jet mill there is a spiral classification. Fine particles will pass through this classification zone and out through a cyclone at the bottom of the mill. The fraction captured in the exhaust filter of the mill was discarded.
For deaggregation of the powders (both for Pulmicort® Turbuhaler® formulation and the Form B salt), the powders were scrape filled into a simple inhaler device comprising an L-shaped cylindrical channel, comprising a vertical component and a horizontal component.
A Turbuhaler® mouthpiece was fastened to the end of the horizontal component to promote deaggregation of the powder, and the powder to be tested was placed via the vertical channel into the bend of the channel (i.e. the corner of the L-shaped channel). An airflow pulse (see below) then activated the airflow through the vertical component of the channel, entraining the powder located in the bend, and the air-particle mixture is thereafter moved through the horizontal component of the cylinder and finally passed through the Turbuhaler® mouthpiece.
After leaving the Turbuhaler® mouthpiece, the aerosol was transferred to a TSI Aerodynamic Particle Sizer (APS®) with Impactor Inlet 3306 set-up where the aerosol cloud was analysed for its aerodynamic properties and fine particle fraction. The APS set-up was arranged in such a way as to allow withdrawal of doses at optional airflows, followed by counting and aerodynamic classification (ca. 0.3-20 μm) of the particles on a particle by particle basis. Briefly, between the USP throat and the 3306 Impacter Inlet, a three-way pneumatic valve and an NGI pre-separator was positioned. In addition, a tube to a vacuum source via a timer-controlled solenoid valve (Triggor Box) was positioned between the valve and the pre-separator in a T-joint fashion. A short airflow pulse is then generated through the inhaler, USP throat, and pre-separator using the Triggor box. After the end of the air pulse, the pneumatic valve switches so that the aerosol cloud in the pre-separator is drawn into the APS via the 3306 Impacter Inlet for aerodynamic assessment.
Each dose was withdrawn with an airflow pulse of duration 0.4 seconds with maximum airflow at 60 lpm, followed by sampling into the APS instrument. The sampling time in the APS software was set to 20 seconds. The result parameters from the APS were mass median aerodynamic diameter (MMAD), geometric standard deviation (GSD), and a measure of the dose amount (particle counting data converted to mass data using particle density=1) called fine particle dose (FPD).
The two first doses (for each formulation) were released and measured gravimetrically. The mean value of these gravimetric doses, denoted “metered doses” or loaded dose, were used for normalisation of the (FPD), which gives a measure of the fine particle fraction (FPF). The FPF can therefore be used for direct comparison between the two powder formulations (for the instrument set up used). The limit for fine particles was set to an aerodynamic particle size of 7 μm. Seven and five doses were then analysed with the APS for Pulmicort® Turbuhaler® formulation and for Form B salt, respectively. […]

[2] = Hygroscopicity determination (vapor sorption, SGA-100); format: physicochemical; settings: room temperature (25° C.)
Description: The weight change of a test sample at room temperature (25° C.) and at 80% relative humidity (RH) were investigated by recording adsorption-desorption isotherms using a symmetric vapor-sorption analyser SGA-100 (VTI Corporation) using different methods, the main features being: a single sorption/desorption cycle from 0 to 90% RH in 10% RH steps with a dm/dt trigger value of 0.002%, (dm/dt=change in mass with time—when the balance stability is within this value the next step is automatically started, however, if those conditions are not achieved there is a default maximum time for each step of 6 hours). Approximately 2 to 10 mg of the test sample was placed in a sample holder and exposed to different relative humidities.

[3] = biological target: T1, human CCR1 (Homo sapiens, UniProt P32246); experiment: Human CCR1 binding assay ([125I] MIP-1α displacement, HEK-CCR1 membranes)
T1 construct: expressed in transfected cells; membranes
T1 sequence (P32246 1-355): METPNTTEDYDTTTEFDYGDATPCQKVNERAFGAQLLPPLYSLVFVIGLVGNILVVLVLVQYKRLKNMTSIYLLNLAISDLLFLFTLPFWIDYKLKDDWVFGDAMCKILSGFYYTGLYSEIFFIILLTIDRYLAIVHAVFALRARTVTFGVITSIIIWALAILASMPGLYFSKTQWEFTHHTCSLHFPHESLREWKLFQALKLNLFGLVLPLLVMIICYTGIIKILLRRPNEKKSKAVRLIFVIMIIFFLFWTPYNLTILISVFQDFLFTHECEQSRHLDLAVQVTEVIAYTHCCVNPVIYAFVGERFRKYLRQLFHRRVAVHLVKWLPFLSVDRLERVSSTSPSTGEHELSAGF
Description: HEK293 cells, from ECACC, stably expressing recombinant human CCR1 (HEK-CCR1) were used to prepare cell membranes containing CCR1. […] The concentration of membranes of each batch was adjusted to 10% specific binding of 33 pM [^125I] MIP-1α.
100 μL of HEK-CCR1 membranes diluted in assay buffer pH 7.4 (137 mM NaCl (Merck, Cat No 1.06404), 5.7 mM Glucose (Sigma, Cat No G5400), 2.7 mM KCl (Sigma, Cat No P-9333), 0.36 mM NaH2PO4×H2O (Merck, Cat No 1.06346), 10 mM HEPES (Sigma, Cat No H3375), 0.1% (w/v) Gelatine (Sigma, Cat No G2625)) with the addition of 17500 units/L Bacitracin (Sigma, Cat No B 1025) were added to each well of the 96 well filter plate (0.45 μm opaque Millipore cat no MHVB N4550). […] 12 μl assay buffer with 10% DMSO was added to certain wells (without compound) to detect maximal binding (B0).
12 μL [^125I] MIP-1α, diluted in assay buffer to a final concentration in the wells of 33 pM, was added to all wells. The plates with lid were then incubated for 1.5 hrs at room temperature. After incubation the wells were emptied by vacuum filtration (MultiScreen Resist Vacuum Manifold system, Millipore) and washed once with 200 μl assay buffer. After the wash, all wells received an addition of 50 μL of scintillation fluid (OptiPhase “Supermix”, Wallac Oy, Turko, Finland). Bound [^125I] MIP-1α was measured using a Wallac Trilux 1450 MicroBeta counter. […]

[4] = Estimated solubility of the salt in organic solvents; format: physicochemical; settings: for solubility: organic solvent or mixture
Description: (b) The Form B salt described in (a) above was also prepared by dissolving, in a vial, 20% w of a sample of the benzoate salt prepared by the method of Example 1(b) (Form A) in a solvent such as methanol (>20 mg/ml), ethanol (>20 mg/ml), n-propanol (>20 mg/ml), isopropanol (8.5 mg/ml) or acetone (9.6 mg/ml). The figures in brackets indicate the estimated solubility of the salt in these solvents. The vial was then sealed and the suspension was homogenised at ambient temperature (20° C.) using a magnet. Stirring and temperature were maintained for a period of at least 7 days after which time a sample of the material obtained was dried and tested by XRPD. XRPD confirmed that there had been complete transformation of Form A to Form B.

In the case of `CC(=O)Nc1ccc(O)cc1OC[C@@](C)(O)CNC1CCN(Cc2ccc(Cl)cc2)CC1` [Form B salt, N-{2-[((2S)-3-{[1-(4-chlorobenzyl)piperidin-4-yl]amino}-2-hydroxy-2-methylpropyl)oxy]-4-hydroxyphenyl}acetamide benzoate], the “Normalized FPF (mean FPF Form B salt/mean FPF Pulmicort Turbuhaler formulation)” value [1] is reported as 164%^a, the “FPF compared with Pulmicort Turbuhaler formulation” value ([1]; in words) is reported as “generally higher” and the “de-aggregation properties (conclusion)” value ([1]; in words) is reported as “advantageous de-aggregation properties”. The “FPD (fine particle dose)” value ([1]; mean of doses) was 182 µg, the “MMAD (mass median aerodynamic diameter)” value ([1]; mean of doses) was 2.16 μm and the “MMAD (mass median aerodynamic diameter)” value ([1]; single dose, airflow pulse 0.4 seconds, 60 lpm) was 2.28 μm and 2.12 μm and 2.20 μm and 2.10 μm and 2.11 μm. The “Water Uptake (% w/w) at 80% RH” value ([2]; listed as Anhydrous Form B) was less than 0.8 % w/w.

`CC(=O)Nc1ccc(O)cc1OC[C@@](C)(O)CNC1CCN(Cc2ccc(Cl)cc2)CC1` [N-{2-[((2S)-3-{[1-(4-chlorobenzyl)piperidin-4-yl]amino}-2-hydroxy-2-methylpropyl)oxy]-4-hydroxyphenyl}acetamide ditrifluoroacetate] showed an IC50 [3] of less than 50 nM.

Work on `CC(=O)Nc1ccc(O)cc1OC[C@@](C)(O)CNC1CCN(Cc2ccc(Cl)cc2)CC1` [Form A, N-{2-[((2S)-3-{[1-(4-chlorobenzyl)piperidin-4-yl]amino}-2-hydroxy-2-methylpropyl)oxy]-4-hydroxyphenyl}acetamide benzoate] yielded an estimated solubility ([4]; acetone) of 9.6 mg/mL, a solubility ([4]; ethanol) greater than 20 mg/mL and an estimated solubility ([4]; isopropanol) of 8.5 mg/mL. The solubility ([4]; methanol) was greater than 20 mg/mL, the solubility ([4]; n-propanol) was greater than 20 mg/mL and the “Water Uptake (% w/w) at 80% RH” value ([2]; listed as Anhydrous Form A) was less than 2 % w/w.
